Test results taken from ChEMBL document CHEMBL1201862, “PubChem BioAssay data set” (2004).
Active and inactive are the calls of the source.

Columns and labels:
[1] = reduction of Shn3 3'UTR-driven luciferase in osteoblasts – cell-based, Clone20 osteoblasts, firefly luciferase, cherry-picked, dose response (AID 624132); type: functional;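 note: firefly luciferase luminescence from reporter carrying the Shn3 3'UTR in osteoblasts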
[2] = test system: HEK293; experiment: EBV LMP1 TES2 canonical NF-kB signalling blockers – cell-based, HEK293, luciferase, cherry-pick, dose response (AID 588343); type: functional; conditions: Homo sapiens
[3] = non-specific 3'UTR reporter inhibition in Clone20-Shn3RL – cell-based, Renilla luciferase, cherry-picked, counter-screen for Shn3 inhibitor project, dose response (AID 624133); type: functional
[4] = loss of viability in HepG2 cells – cell-based, CellTiter-Glo, cherry-picked, cytotoxicity control for Shn3 inhibitor project, dose response (AID 624134); type: functional
[5] = luciferase reporter signal suppression in cells – H4 neuroglioma cells, luminescence, dose response (AID 1990); type: functional, cell-based
[6] = alpha-synuclein stem-loop luciferase translation blockers – H4 neuroglioma cells, luminescence, confirmation (AID 1988); type: functional, cell-based
[7] = biological target: T1, Type-1 angiotensin II receptor (Homo sapiens, UniProt P30556); experiment: antagonism of angiotensin II type 1 receptor – cell-based, uHTS hits, selectivity assay for APJ receptor antagonist project, dose response (AID 463214); type: functional;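 note: antagonist potency against angiotensin II stimulated AT1 response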
T1 sequence (P30556 whole entry): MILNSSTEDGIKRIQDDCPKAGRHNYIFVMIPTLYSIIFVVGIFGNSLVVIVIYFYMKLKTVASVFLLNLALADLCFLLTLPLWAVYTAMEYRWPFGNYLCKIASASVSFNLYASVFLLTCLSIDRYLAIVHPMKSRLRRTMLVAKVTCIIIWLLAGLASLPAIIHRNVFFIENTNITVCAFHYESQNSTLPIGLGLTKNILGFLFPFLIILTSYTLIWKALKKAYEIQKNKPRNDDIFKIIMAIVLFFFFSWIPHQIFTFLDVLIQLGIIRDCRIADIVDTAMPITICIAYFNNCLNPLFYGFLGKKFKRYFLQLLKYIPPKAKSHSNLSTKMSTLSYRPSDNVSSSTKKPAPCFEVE

[8] = Luminescence Cell-Based Dose Response HTS to Identify Inhibitors of 5'UTR Stem-Loop Driven Prion Protein mRNA Translation in H4 Neuroglioblastoma Cells. [Related pubchem assays: 1827 (Project Summary), 1813 (Primary HTS)]; type: functional
[9] = biological target: Beta-galactosidase (Escherichia coli, UniProt Q8VNN2); experiment: PubChem AID 485352; type: functional
[10] = biological target: Induced myeloid leukemia cell differentiation protein Mcl-1 (Homo sapiens, UniProt Q07820); type: functional
[11] = biological target: Paired box protein Pax-8 (Homo sapiens, UniProt Q06710); experiment: PAX8 transcriptional activity inhibition in RMG-I – RMG-I cells, luciferase, cherry-pick, dose response (AID 687027); type: functional, cell-based;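 note: luciferase reporter driven by Pax8 target thyroperoxidase promoter measured by SteadyGlo luminescence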
[12] = test system: Vero; experiment: cells; type: functional; conditions: Chlorocebus sabaeus
[13] = blockers of HIV-1 ZM109 envelope-driven cell-cell fusion – HeLa effector, CEM target cells, luciferase, cherry-pick, dose response (AID 652058); type: functional, cell-based;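 note: luciferase signal from HIV-1 Env mediated cell-cell fusion of effector and target cells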
[14] = blockers of HIV-1 envelope-mediated cell-cell fusion – cherry-pick, dose response (AID 652057); type: functional, cell-based
[15] = HIV-1 AD8 envelope cell-cell fusion blockers – cherry-pick, dose response (AID 652062); type: functional, cell-based;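 note: luciferase signal from cell-cell fusion driven by HIV-1 clade B AD8 Env; potency is for inhibitors of fusion seen as a drop in luminescence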
[16] = off-target signal loss in HeLa-CEM21 co-culture – HeLa F-luc CTL cells, cherry-picked, counter-screen for HIV-1 Env fusion inhibitor project, dose response (AID 652040); type: functional, cell-based;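 note: potency for signal decrease marking cytotoxic or nonspecific inhibition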
[17] = biological target: T2, Aminopeptidase N (Plasmodium falciparum FcB1/Columbia, UniProt O96935); experiment: malaria alanyl aminopeptidase activity blockers – biochemical, fluorogenic H-Leu-NHMec substrate, 1536-well (AID 1445); set-up: species or system Plasmodium falciparum 3D7, 3D7
T2 sequence (O96935 whole entry): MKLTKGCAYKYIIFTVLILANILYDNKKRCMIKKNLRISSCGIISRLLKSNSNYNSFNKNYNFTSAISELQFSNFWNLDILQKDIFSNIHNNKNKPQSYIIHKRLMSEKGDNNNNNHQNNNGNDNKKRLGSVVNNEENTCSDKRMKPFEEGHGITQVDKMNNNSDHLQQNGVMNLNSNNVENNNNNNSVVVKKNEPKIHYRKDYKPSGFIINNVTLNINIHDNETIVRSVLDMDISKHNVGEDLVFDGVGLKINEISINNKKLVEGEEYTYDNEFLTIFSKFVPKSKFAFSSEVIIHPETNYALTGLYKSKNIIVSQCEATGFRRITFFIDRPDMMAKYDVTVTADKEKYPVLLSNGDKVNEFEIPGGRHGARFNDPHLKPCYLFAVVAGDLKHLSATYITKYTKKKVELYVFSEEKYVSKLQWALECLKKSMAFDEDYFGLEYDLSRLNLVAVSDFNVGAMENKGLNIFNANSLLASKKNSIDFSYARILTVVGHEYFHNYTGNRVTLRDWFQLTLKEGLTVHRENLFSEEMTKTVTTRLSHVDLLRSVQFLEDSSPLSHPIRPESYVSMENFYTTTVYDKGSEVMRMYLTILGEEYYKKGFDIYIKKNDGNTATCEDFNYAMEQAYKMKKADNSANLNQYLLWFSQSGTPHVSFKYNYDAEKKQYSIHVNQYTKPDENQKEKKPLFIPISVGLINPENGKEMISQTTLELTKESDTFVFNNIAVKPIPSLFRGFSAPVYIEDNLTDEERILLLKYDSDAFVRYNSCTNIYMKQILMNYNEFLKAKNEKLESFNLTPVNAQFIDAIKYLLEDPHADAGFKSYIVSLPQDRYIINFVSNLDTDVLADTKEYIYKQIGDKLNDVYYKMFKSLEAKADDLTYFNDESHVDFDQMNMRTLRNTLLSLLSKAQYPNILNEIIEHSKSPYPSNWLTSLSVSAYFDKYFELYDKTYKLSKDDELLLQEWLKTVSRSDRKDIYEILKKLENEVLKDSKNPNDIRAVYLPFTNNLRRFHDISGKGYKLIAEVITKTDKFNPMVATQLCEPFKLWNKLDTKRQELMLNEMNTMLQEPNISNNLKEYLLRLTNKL

Chain of Induced myeloid leukemia cell differentiation protein Mcl-1 (Q07820 whole entry): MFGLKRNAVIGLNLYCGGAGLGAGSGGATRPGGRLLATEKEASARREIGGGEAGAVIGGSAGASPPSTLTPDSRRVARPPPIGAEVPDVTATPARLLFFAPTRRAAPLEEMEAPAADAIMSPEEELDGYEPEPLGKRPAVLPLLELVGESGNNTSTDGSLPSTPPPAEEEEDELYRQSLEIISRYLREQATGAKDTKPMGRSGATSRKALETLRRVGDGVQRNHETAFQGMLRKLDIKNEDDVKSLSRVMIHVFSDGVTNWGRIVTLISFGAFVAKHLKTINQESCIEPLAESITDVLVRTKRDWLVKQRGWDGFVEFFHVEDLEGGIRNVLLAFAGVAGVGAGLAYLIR
Chain of Beta-galactosidase (Q8VNN2 whole entry): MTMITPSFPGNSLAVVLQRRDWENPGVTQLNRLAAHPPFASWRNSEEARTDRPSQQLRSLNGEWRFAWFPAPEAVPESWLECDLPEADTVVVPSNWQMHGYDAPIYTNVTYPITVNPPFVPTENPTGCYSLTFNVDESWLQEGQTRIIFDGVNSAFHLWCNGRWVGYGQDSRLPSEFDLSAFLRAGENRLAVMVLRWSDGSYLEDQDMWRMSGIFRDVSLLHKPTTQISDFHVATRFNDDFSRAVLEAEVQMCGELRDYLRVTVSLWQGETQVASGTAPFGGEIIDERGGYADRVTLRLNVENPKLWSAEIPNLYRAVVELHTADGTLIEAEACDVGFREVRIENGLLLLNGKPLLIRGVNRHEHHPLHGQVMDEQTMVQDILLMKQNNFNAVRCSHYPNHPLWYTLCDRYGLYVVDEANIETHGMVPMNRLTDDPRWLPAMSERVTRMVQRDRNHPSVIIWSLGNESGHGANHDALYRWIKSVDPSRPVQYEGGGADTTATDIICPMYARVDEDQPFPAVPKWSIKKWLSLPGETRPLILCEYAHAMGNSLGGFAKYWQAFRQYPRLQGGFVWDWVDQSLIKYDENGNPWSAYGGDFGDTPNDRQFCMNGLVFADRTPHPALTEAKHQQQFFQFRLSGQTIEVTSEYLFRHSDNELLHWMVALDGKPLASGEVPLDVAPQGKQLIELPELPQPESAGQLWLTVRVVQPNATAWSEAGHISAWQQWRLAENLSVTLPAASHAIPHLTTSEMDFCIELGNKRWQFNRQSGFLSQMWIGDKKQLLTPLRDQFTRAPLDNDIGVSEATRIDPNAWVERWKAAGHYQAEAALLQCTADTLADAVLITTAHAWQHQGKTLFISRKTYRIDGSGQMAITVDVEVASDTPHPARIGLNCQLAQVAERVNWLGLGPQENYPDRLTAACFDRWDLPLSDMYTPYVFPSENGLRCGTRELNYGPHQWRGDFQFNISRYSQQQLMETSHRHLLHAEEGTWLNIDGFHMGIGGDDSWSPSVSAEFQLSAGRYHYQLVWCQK
Chain of Paired box protein Pax-8 (Q06710 whole entry): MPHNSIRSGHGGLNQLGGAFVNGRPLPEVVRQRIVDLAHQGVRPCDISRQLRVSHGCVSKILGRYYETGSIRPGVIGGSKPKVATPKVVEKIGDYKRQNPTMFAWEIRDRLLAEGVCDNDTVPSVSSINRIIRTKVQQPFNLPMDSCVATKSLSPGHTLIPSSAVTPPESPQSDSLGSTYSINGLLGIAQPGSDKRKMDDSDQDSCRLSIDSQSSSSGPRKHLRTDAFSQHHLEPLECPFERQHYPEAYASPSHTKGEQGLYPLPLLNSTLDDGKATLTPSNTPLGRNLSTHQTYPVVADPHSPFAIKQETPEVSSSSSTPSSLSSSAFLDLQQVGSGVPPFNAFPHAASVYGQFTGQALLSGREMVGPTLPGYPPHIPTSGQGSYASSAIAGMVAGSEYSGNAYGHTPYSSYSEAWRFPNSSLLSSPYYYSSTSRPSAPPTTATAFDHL

With `OC1(c2cccc(C(F)(F)F)c2)CCN(c2[nH]cnc3c4cc(F)ccc4nc2-3)CC1` the AC50 [1] was 1.87 µM (active), the AC50 [2] was 7.02 µM (active) and the AC50 [3] was 6.11 µM (active). The AC50 [4] was 46 µM (active).
With `NNc1nc(-c2ccccc2)cc(-c2ccccc2)n1` the EC50 [5] was > 120 µM (not active), the EC50 [6] was > 120 µM (not active) and the IC50 [7] was 13 µM (active). For the same compound, the EC50 [8] was > 120 µM (not active) and the EC50 [9] was > 40 µM (inactive).
With `Cc1ccc(/C=C/C(=O)NCc2ccccn2)o1` the IC50 [10] was 6.32 µM (active).
For `COc1cccc(/C=C2\SC(=S)N(CCC(=O)NCCc3ccc(O)cc3)C2=O)c1`, the AC50 [11] was 4.57 µM (active) and the CC50 [12] was 16.1 µM (active).
In the case of `O=C(Nc1cc(Cl)cc(Cl)c1)C1CCC(=O)N1Cc1ccccc1Cl` (stereo unspecified), the AC50 [13] is reported as 19.3 µM (active), the AC50 [14] is reported as 7.12 µM (active) and the AC50 [15] is reported as 8.36 µM (active). The AC50 [16] was 59.2 µM (active).
For `COc1cc(/C=C/C(=O)O)cc(S(=O)(=O)Nc2ccc3nc(SC)sc3c2)c1OC`, the IC50 [17] was 66.4 µM (active).
In the case of `NNC(=O)c1cccc(COc2ccc3c(c2)CCC3)c1`, the AC50 [2] is reported as 2.12 µM (active).
For `COc1cc(/C=C2\SC(=S)N(CC(=O)Nc3ccc(O)cc3)C2=O)cc(OC)c1OC`, the IC50 [10] was 3.74 µM (active).
With `Cc1ccc2nc3c(nc2c1C)C(O)=C3O` the IC50 [17] was 48.5 µM (active).
For `Cc1cccc(-c2nc3ccccc3c(=O)n2NC(=O)c2cccs2)c1`, the IC50 [17] was 44.1 µM (active).
